Where a name gives a salt, the structure may show the parent alone.
How the values were obtained:
in vivo = settings: mouse, iv
[1] = test system: disorders of cardiac rhythm provoked by aconitine in rats; type: in vivo; settings: ED50 rat i.v. / LD50 mouse i.v.
Procedure: When examining the antiarrhythmic effects, rats were pre-treated intravenously with 1 mg/kg of aconitine to provoke disorders of cardiac rhythm [Med. Exp. (Basel) 10, 93 (1964)], thereafter the test compound was administered intravenously, and the dose required to restore the rhythm in 50% (ED50 mg/kg) was determined.

[2] = test system: calcium antagonistic effect; test: Calcium antagonistic effect (pA2)

Compound | LD50 (in vivo) [mg/kg] | Therap. index (ED50/LD50) [1] | calcium antagonistic effect (pA2) [2]
CCN1CC2CN(C)CC(C1)C2OC(=O)c1ccc(-c2ccccc2)cc1 (stereo not drawn) [3-Methyl-7-ethyl-9α-(4'-phenyl-benzoyloxy)-3,7-diazabicyclo[3.3.1]nonane] | 19.5 | 0.061 | –
CN1CC2CN(C)CC(C1)C2OC(=O)c1ccc2ccccc2c1 (stereo not shown) [3,7-dimethyl-9-(2'-naphthoyloxy)-3,7-diazabicyclo[3.3.1]nonane] | 17 | 0.006 | –
CCN1CC2CN(C)CC(C1)C2Oc1ccc(Cl)cc1 (stereo not drawn) [3-Methyl-7-ethyl-9α-(4'-chlorophenoxy)-3,7-diazabicyclo[3.3.1]nonanedihydrochloride] | 41 | 0.030 | –
CN1CC2CN(C)CC(C1)C2OC(=O)c1ccccc1 (stereo not shown) [3,7-Dimethyl-9-benzoyloxy-3,7-diazabicyclo[3.3.1]nonane] | 9 | 0.009 | –
CN1CC2CN(C)CC(C1)C2Oc1ccc(Cl)cc1.O=C(O)/C=C/C(=O)O (stereo not shown) [3,7-Dimethyl-9-(4'-chlorophenoxy)-3,7-diazabicyclo[3.3.1]nonane fumarate] | 52 | 0.017 | –
CN1CC2CN(C)CC(C1)C2OC(=O)C1c2ccccc2Oc2ccccc21 (stereo not shown) [3,7-dimethyl-9-(xanthene-9'-carbonyloxy)-3,7-diazabicyclo[3.3.1]nonane] | 14 | 0.019 | –
CN1CC2CN(C)CC(C1)C2Oc1ccccc1.O=C(O)/C=C/C(=O)O (stereo not shown) [3,7-dimethyl-9-phenoxy-3,7-diazabicyclo[3.3.1]nonane fumarate] | 39 | 0.029 | –
CCN1CC2CN(C)CC(C1)C2OC(=O)c1ccc(Cl)cc1 (stereo not drawn) [3-Methyl-7-ethyl-9α-(4'-chloro-benzoyloxy)-3,7-diazabicyclo[3.3.1]nonane dihydrochloride] | – | – | 4.33-4.6
CCCCN1CC2CN(CCCC)CC(C1)C2OC(=O)c1ccc(Cl)cc1 (stereo not shown) [3,7-di-n-butyl-9-(4'-chlorobenzoyloxy)-3,7-diazabicyclo[3.3.1]nonane] | 5 | 0.050 | –
CCN1CC2CN(C)CC(C1)C2OC(=O)c1ccc(Cl)cc1Cl (stereo not drawn) [3-Methyl-7-ethyl-9α-(2',4'-dichloro-benzoyloxy)-3,7-diazabicyclo[3.3.1]nonane dihydrochloride] | 20 | 0.055 | –
CCOc1ccc(C(=O)OC2C3CN(C)CC2CN(C)C3)cc1OC (stereo not shown) [3,7-Dimethyl-9-(3'-methoxy-4'-ethoxy-benzoyloxy)-3,7-diazabicyclo[3.3.1]nonane] | 13.5 | 0.074 | –
CCN1CC2CN(C)CC(C1)C2Oc1ccccc1Cl (stereo not drawn) [3-Methyl-7-ethyl-9α-(2'-chlorophenoxy)-3,7-diazabicyclo[3.3.1]nonanedihydrochloride] | 28 | 0.041 | –
COc1ccc(CCN(C)CCCC(C#N)(c2ccc(OC)c(OC)c2)C(C)C)cc1OC (racemic) [Verapramil, reference compound] | – | – | 4.58-4.7
CN1CC2CN(C)CC(C1)C2OC(c1ccccc1)c1ccccc1.O=C(O)/C=C/C(=O)O (stereo not shown) [3,7-Dimethyl-9-benzhydryloxy-3,7-diazabicyclo[3.3.1]nonane fumarate] | 21 | 0.057 | –
CCN1CC2CN(CC)CC(C1)C2OC(=O)c1ccc(Cl)cc1.Cl.Cl.O (stereo not shown) [3,7-diethyl-9-(4'-chloro-benzoyloxy)-3,7-diazabicyclo[3.3.1]nonane dihydrochloride monohydrate] | 11 | 0.036 | –

— patent US4451473A, “3,7-Diazabicyclo [3.3.1] nonanes having anti-arrhythmic activity” (Richter Gedeon Vegyeszeti Gyar Rt., priority 1981, dated 1984)
